Test results from US6413948B1, “Pharmaceutical compositions and methods of effecting a neuronal activity in an animal using naaladase inhibitors” (Guilford Pharmaceuticals Inc., priority 1996, dated 2002).

Legend:
mice = test: In vivo toxicity of NAALADase inhibitors in mice
From the text: The mice were subsequently observed two times per day for 5 consecutive days.

[1] = system: SHRSP rats which had sustained middle cerebral artery occlusion (MCAO); test: In vivo assay on cortical injury following MCAO in SHRSP rats
From the text: A colony of SHRSP rats is bred at Johns Hopkins School of Medicine from three pairs of male and female rats obtained from the National Institutes of Health (Laboratory, Sciences Section, Veterinary Resources Program, National Center for Research Resources, Bethesda, Md.). All rats are kept in a virus-free environment and maintained on regular diet (NIH 31, Zeigler Bros, Inc.) with water ad libitum. All groups of rats are allowed to eat and drink water until the morning of the experiment.
Transient occlusion of the middle cerebral artery (MCA) is induced by advancing a 4-0 surgical nylon suture into the internal carotid artery (ICA) to block the origin of the MCA (Koizumi, 1986; Longa, 1989; Chen, 1992). The rats are anesthetized with 4% halothane, and maintained with 1.0% to 1.5% halothane in air enriched oxygen using a face mask. Rectal temperature is maintained at 37.0±0.5° C. throughout the surgical procedure using a heating lamp. The right femoral artery is cannulated for measuring blood gases (pH, oxygen tension [PO2], carbon dioxide tension [PCO2]) before and during ischemia, for monitoring blood pressure during the surgery. The right common carotid artery (CCA) is exposed through a midline incision; a self-retraining retractor is positioned between the digastric and mastoid muscles, and the omohyoid muscle is divided. The right external carotid artery (ECA) is dissected and ligated. The occipital artery branch of the ECA is then isolated and coagulated. Next, the right internal carotid artery (ICA) is isolated until the pterygopalatine artery is exposed, and carefully separated from the adjacent vagus nerve. The pterygopalatine artery is ligated with 4-0 silk suture close to its origin.
After the CCA is ligated with 4-0 silk suture, a 4-0 silk suture to prevent bleeding from a puncture site, through which a 2.5 cm length of 4-0 monofilament nylon suture (Ethilon), its tip rounded by heating near a electric cautery, is introduced into the ICA lumen. A 6-0 silk suture is tightened around the intraluminal nylon suture at the bifurcation to prevent bleeding, and the stretched sutures at the CCA and the ICA are released. The nylon suture is then gently advanced as far as 20 mm.
Anesthesia is terminated after 10 minutes of MCA occlusion in both groups, and the rats were awakened 5 minutes thereafter. After 2 hours of ischemia, anesthesia is reanesthetized, and reperfusion is performed by withdrawing the intraluminal nylon suture until the distal tip became visible at the origin of the ICA.
Arterial pH and PaCO2, and partial pressure of oxygen (PaO2) are measured with a self-calibrating Radiometer electrode system (ABL 3; Copenhagen, Denmark). Hemoglobin and arterial oxygen content are measured with a hemoximeter (Radiometer, Model OSM3; Copenhagen, Denmark). Blood glucose is measured with a glucose analyzer (model 2300A, Yellow Springs Instruments, Yellow Springs, Ohio).
Each group is exposed to 2 hours of right MCA occlusion and 22 hours of reperfusion. All variables but the rectal temperature are measured at baseline, at 15 minutes and 45 minutes of right MCA occlusion. The rectal temperature is measured at baseline, at 0 and 15 min of MCA occlusion, and at 0 and 22 hours of reperfusion.

[2] = system: mouse sciatic nerve following cryolesion; test: In vivo assay on myelin formation following sciatic nerve cryolesion; design: species or system mice; details: silicone implants, approximately 2.5 μg/day, 15 days after surgery
Method: Cryolesion of the mouse sciatic nerve was performed according to Koenig et al., Science, Vol. 268, pp. 1500-1503 (June 1995). In brief, each mouse was anesthetized and its sciatic nerve was exposed in the upper thigh and cryolesioned using a copper cryode (diameter=0.5 mm) that was dipped in liquid nitrogen and repeatedly applied to the upper part of the nerve. The extent of the lesion was approximately 1 mm.
Fifteen days after surgery, the mice were sacrificed and their sciatic nerve segments were collected and processed for light microscopy and TEM analysis. Randomly chosen fields 2-3 mm distal to the lesion were qualitatively analyzed by light microscopy using 1-micrometer-thick toluidine blue stained cross sections and photographic images were captured.

MPTP lesioned mice = test: In vivo assay on Parkinson's Disease (MPTP lesioned mice, TH immunostaining); design: species or system CD1 white mice
Method: MPTP lesioning of dopaminergic neurons in mice was used as an animal model of Parkinson's Disease, as described by Steiner, Proc. Natl. Acad. Sci., Vol. 94, pp. 2019-2024 (March 1997). In brief, four week old male CD1 white mice were dosed IP with 30 mg/kg of MPTP for 5 days. […] At 18 days following MPTP treatment, the mice were sacrificed and their brains were removed and sectioned. Immunostaining was performed on saggital and coronal brain sections using anti-tyrosine hydroxylase (TH) antibodies to quantitate survival and recovery of dopaminergic neurons.

[3] = system: spinal cord organotypic cultures; test: Spinal cord culture model of ALS (THA toxicity, ChAT activity); format: cell-based, rats
Method: Organotypic cultures were prepared from lumbar spinal cord of 8 day old rats, as described by Rothstein et al., J. Neurochem., Vol. 65, No. 2 (1995), and Rothstein et al., Proc. Natl. Acad. Sci. USA, Vol. 90, pp. 6591-6595 (July 1993). In brief, lumbar spinal cords were removed and sliced into 300 […] sections, and five slices were placed on Millipore CM semipermeable 30-mm-diameter membrane inserts. The inserts were placed on 1 ml of culture medium in 35-mm-diameter culture wells. Culture medium consisted of 50% minimal essential medium and phosphate-free HEPES (25 mM), 25% heat-inactivated horse serum, and 25% Hanks' balanced salt solution (GIBCO) supplemented with D-glucose (25.6 mg/ml) and glutamine (2 mM), at a final pH of 7.2. Antibiotic and antifungal agents were not used. Cultures were incubated at 37° C. in 5% CO2 containing humidified environment (Forma Scientific). Culture medium, along with any added pharmacological agents, was changed twice weekly.
Drugs were incubated for an additional 13 to 20 days with the 100 μM THA. At the end of this period, cultures were collected assayed for ChAT activity as described below.
To determine choline acetyltransferase (ChAT) activity, the spinal cord tissues in each dish (five slices) were pooled and frozen (−75° C.) until assay. ChAT activity was measured radiometrically by described methods using [^3H] acetyl-CoA (Amersham; Fonnum, 1975). Protein content of tissue homogenate was determined by a Coomassi Protein Assay kit (Pierce, Rockford, Ill.).

[4] = 10 mg/kg followed by 2 mg/kg/hr for 1 hour
[5] = 100 mg/kg followed by 20 mg/kg/hr for one hour

SMILES: O=C(O)CCC(CP(=O)(O)O)C(=O)O (centres unmarked) [2-(phosphonomethyl)pentanedioic acid]
- toxicity to mice (in words) (mice; 1 to 500 mg/kg, observed 5 days): non-toxic to mice
- Survival Rate After 5 days (%) (mice; dose 1 mg/kg): 100%
- Survival Rate After 5 days (%) (mice; dose 5 mg/kg): 100%
- Survival Rate After 5 days (%) (mice; dose 10 mg/kg): 100%
- Survival Rate After 5 days (%) (mice; dose 30 mg/kg): 100%
- Survival Rate After 5 days (%) (mice; dose 100 mg/kg): 100%
- Survival Rate After 5 days (%) (mice; dose 300 mg/kg): 100%
- Survival Rate After 5 days (%) (mice; dose 500 mg/kg): 66.7%
- Cortical Injury Volume (% injury) ± S.E.M. [1, 4]: 29.14 ± 7.68 (n = 10) % injury
- Cortical Injury Volume (mm^3) ± S.E.M. [1, 4]: 135.00 ± 32.18 (n = 10) mm^3
- Cortical Protection (% protection) [1, 4]: 27%
- Cortical Injury Volume (% injury) ± S.E.M. [1, 5]: 13.98 ± 6.64 (n = 10) % injury
- Cortical Injury Volume (mm^3) ± S.E.M. [1, 5]: 65.23 ± 32.18 (n = 10) mm^3
- Cortical Protection (% protection) [1, 5]: 65%
- # of myelinated lamellae (ave. + SEM) [2]: 16.53 ± 0.65
- % increase of myelinated lamellae over vehicle [2]: 20%
- Percent Strial TH Innervation Density (mean ± SEM) (MPTP lesioned mice; MPTP 30 mg/kg IP for 5 days plus compound 10 mg/kg SC): 16.28 ± 0.98%
- recovery of TH-stained dopaminergic neurons (in words) (MPTP lesioned mice; lesioned mice, 10 mg/kg, p<0.001): significant recovery
- ChAT Activity (% of Control) ([3]; Table XII, THA (100 μM) and 1 nM, 14 days): −23.9 ± 18.6 % of Control
- ChAT Activity (% of Control) ([3]; Table XII, THA (100 μM) and 10 nM, 14 days): 23.1 ± 12.5 % of Control
- ChAT Activity (% of Control) ([3]; Table XII, THA (100 μM) and 100 nM, 14 days): 87.5 ± 21.7 % of Control
- ChAT Activity (% of Control) ([3]; Table XII, THA (100 μM) and 1 μM, 14 days): 187.7 ± 32.8 % of Control
- ChAT Activity (% of Control) ([3]; Table XII, THA (100 μM) and 10 μM, 14 days): 128.7 ± 17.2 % of Control
- protection of the cultures from THA toxicity (in words) ([3]; co-incubation with THA, 100 nM-10 μM): significantly protected
- ChAT Activity (% of Control) ([3]; compound alone): 108 ± 18.4 % of Control
- ChAT Activity (% of Control) ([3]; compound and THA): 121 + 18.8 % of Control
